Results: PMC13170813, “Agmatine coumaroyltransferase gene on the short arm of chromosome 2H is involved in hordatine biosynthesis in barley” (Plant Biotechnology, 2026)

Test system: T1, HvACT-2HS1
T1 construct: full-length, 467 residues; pET28a (NdeI) N-terminal His-tag removed with thrombin; E. coli Rosetta 2 (DE3); 57 kDa SDS-PAGE, 51 kDa native, monomer
Experiment: HPLC of product ([…] nm), Michaelis-Menten non-linear fit
Type: biochemical, Hordeum vulgare subsp. vulgare
Conditions: 100 mM Tris-HCl pH 8.5, 40°C

SMILES | Km (100 µM p-coumaroyl-CoA) [µM] | Km (100 µM agmatine) [µM]
N=C(N)NCCCCN [Agmatine] | 30 ± 1.3 | 
COc1cc(/C=C/C(=O)SCCNC(=O)CCNC(=O)[C@H](O)C(C)(C)COP(=O)(O)OP(=O)(O)OC[C@H]2O[C@@H](n3cnc4c(N)ncnc43)[C@H](O)[C@@H]2OP(=O)(O)O)ccc1O [Feruloyl-CoA] |  | 6.6 ± 2.2
NCCCCN [Putrescine] | 30000 | 
CC(C)(COP(=O)(O)OP(=O)(O)OC[C@H]1O[C@@H](n2cnc3c(N)ncnc32)[C@H](O)[C@@H]1OP(=O)(O)O)[C@@H](O)C(=O)NCCC(=O)NCCSC(=O)/C=C/c1ccc(O)cc1 [p-Coumaroyl-CoA] |  | 12 ± 1.3
